Results reported in patent publication US20240122865A1, “Methods of Protecting RNA” (Pfizer Inc., priority 2021, published 2024).

What was measured:
VSV G pseudotyped virus = system: VSV G pseudotyped virus; design: species or system BALB/c mice; settings: mouse
HEK-293T cell monolayer = type: cell-based
Chi18 mRNA construct = assay: Size Exclusion Base Hydrolysis Degradation Assay, Chi18; type: biochemical, Trichoderma atroviride; settings: for T0 R1 peak area at 250 nm: Chi18 0.1 mg/mL, 25 mM amino acid, 50 mM CAPS, T=0, replicate 1; for T2 Avg, peak area as percentage of T=0 / T2 R1 peak area at 250 nm / T10 Avg, peak area as percentage of T=0 / T10 R1 peak area at 250 nm / T24 R1 peak area at 250 nm / T0 Avg, peak area as percentage of T=0 / T24 Avg, peak area as percentage of T=0: Chi18, 25 mM amino acid; for T2 Avg, peak area as percentage of T=0 / T2 R1 peak area at 250 nm / T10 Avg, peak area as percentage of T=0 / T10 R1 peak area at 250 nm / T24 R1 peak area at 250 nm / T24 Avg, peak area as percentage of T=0: 50 mM CAPS pH 11, room temperature; for T2 Avg, peak area as percentage of T=0 / T2 R1 peak area at 250 nm: 2 hrs; for T2 R1 peak area at 250 nm / T10 R1 peak area at 250 nm / T24 R1 peak area at 250 nm: replicate 1; for T10 Avg, peak area as percentage of T=0 / T10 R1 peak area at 250 nm: 10 hrs; for T24 R1 peak area at 250 nm / T24 Avg, peak area as percentage of T=0: 24 hrs; for T0 Avg, peak area as percentage of T=0: T=0 (reference)
Procedure: Basic assay procedure: RNA samples were diluted to 1.0 mg/mL in DNAase/RNAase free water. Amino acids were dissolved in water to a stock solution of 100 mM and a solution of 500 mM CAPS pH 11 was used. The two mRNA constructs tested were FgenL and Chi18. Each individual sample volume was 50 μL. To determine the amount of 1 M NaOH needed to adjust the final pH to 11.0 after the addition of all sample components, the sample volume was increased 100 fold (5 mL), the volume of 1 M NaOH recorded and this value was translated back down to the 50 μL sample volume.
The mRNA and amino acid were allowed to incubate for one hour prior to the addition of CAPS pH 11. All steps of the assay were conducted at room temperature.
Degradation reaction: After the CAPS addition, the samples were injected onto the Waters H-Class UPLC system to record the first timepoint, T=O. This resulting chromatogram was processed by integrating the area of absorbance at 250 nm for the mRNA construct. Immediately following this timepoint, the pH was adjusted to 11. Subsequent time points (2 hrs, 10 hrs, and 24 hrs) recorded the Absorbance Units (peak area) at 250 nm as a percentage of the peak area determined at T=O. Integration of the chromatogram for subsequent timepoints was conducted by analyzing the area of absorbance at 250 nm contained within the same time window in which the peak eluted in T=0 for the 100% intact mRNA.

SMILES | stabilization as measured by functional immunogenic response in vivo (VSV G pseudotyped virus) | IVE of the Tris/Sucrose LNP formulation upon inclusion of glutamic acid (HEK-293T cell monolayer) [%] | effect on in vitro expression (IVE) of the Tris/Sucrose LNP formulation (HEK-293T cell monolayer) | T0 R1 peak area at 250 nm (Chi18 mRNA construct) | T2 Avg, peak area as percentage of T=0 (Chi18 mRNA construct) [%] | T2 R1 peak area at 250 nm (Chi18 mRNA construct) | T10 Avg, peak area as percentage of T=0 (Chi18 mRNA construct) [%] | T10 R1 peak area at 250 nm (Chi18 mRNA construct) | T24 R1 peak area at 250 nm (Chi18 mRNA construct) | T0 Avg, peak area as percentage of T=0 (Chi18 mRNA construct) [%] | T24 Avg, peak area as percentage of T=0 (Chi18 mRNA construct) [%]
N[C@@H](CCC(=O)O)C(=O)O [Glutamic acid] | significant stabilization | 70 | improved | 19221 | 92.8 | 16514 | 151.2 | 6324 | 0 | 100.0 | 
NCCCC[C@H](N)C(=O)O [Lysine] |  |  |  | 24122 | 0.0 | 0 | 0.0 | 0 | 0 | 100.0 | 0.0
N[C@@H](CO)C(=O)O [Serine] |  |  |  | 31778 | 150.4 | 19639 | 0.0 | 0 | 0 | 100.0 | 0.0
NCC(=O)O [Glycine] |  |  |  | 32571 | 69.6 | 21950 | 0.0 | 0 | 0 | 100.0 | 0.0
C[C@H](N)C(=O)O [Alanine] |  |  |  | 19606 | 71.6 | 13211 | 18.1 | 2730 | 0 | 100.0 | 0.0
